Measured values from PMC3387161, “Small Molecules Targeted to a Non-Catalytic “RVxF” Binding Site of Protein Phosphatase-1 Inhibit HIV-1” (PLoS ONE, 2012).

Tests used:
[1] = tested on: HIV-1 transcription in CEM-GFP cells; test: cells; assay type: cell-based
[2] = tested on: HIV-1 LTR-Lac Z reporter in 293T cells; test: HIV-1 LTR-directed transcription in 293T cells transfected with Tat vector and HIV-1 LTR-LacZ reporter; assay type: cell-based; details: Human immunodeficiency virus 1, HEK-293T, read-out: IC50 for inhibition of HIV-1 LTR-directed transcription in 293T cells

COCCNC(=O)COC(=O)c1c2c(nc3ccccc13)/C(=C/c1ccc(O)cc1)CCC2 [1H4]
Percent of inhibition of HIV-1 transcription in CEM GFP cells infected with Ad-Tat ([1]; 25 µM of each compound, 48 hours): 96%
IC50 ([1]; Human immunodeficiency virus 1, CEM-GFP, 24 h, read-out: Inhibition of HIV-1 Transcription in CEM-GFP cells (IC50, μM)): 10 µM
IC50 [2]: 5 µM
